From US4740233A, “Substituted 1,2,4-triazolo[1,5-a]-pyrimidine-2-sulfonamides and compositions and methods of controlling undesired vegetation and suppressing the nitrification of ammonium nitrogen in soil” (The Dow Chemical Company, priority 1986, dated 1988)

Assays:
wheat [1] = assay: Postemergent control of plant species; format: in vivo, Triticum aestivum; conditions: Triticum aestivum, post-emergence, 336 h, read-out: percent postemergent control
Procedure: (§1) In representative operations, each compound to be utilized in a series of tests is dissolved in acetone to one-half of the final volume (twice the final concentration) to be used and the acetone solution in each case is admixed with an equal volume of water containing 0.1 percent by weight of surface active material. The compositions, generally in the nature of an emulsion, were employed to spray separate respective plant species which had been grown to a 2-4 leaf stage in soil of good nutrient content in a greenhouse. The various beds were positioned side by side and exposed to substantially identical conditions of temperature and light. Each bed was maintained so as to prevent any interaction with test compounds in different seed beds. Other plants were left untreated to serve as controls. After treatment, the plants were maintained for about two weeks under greenhouse conditions conducive for good plant growth and watered as necessary. Control refers to the reduction in growth compared to the observed results of the same untreated species.

johnson grass [2] = assay: Postemergent control of plant species; format: in vivo, Sorghum halepense; conditions: Sorghum halepense, post-emergence, 336 h, read-out: percent postemergent control
Procedure: as §1

yellow nutsedge [3] = assay: Postemergent control of plant species; format: in vivo, Cyperus esculentus; conditions: Cyperus, post-emergence, 336 h, read-out: percent postemergent control
Procedure: as §1

pigweed = assay: Postemergent control of plant species; format: in vivo, Amaranthus spp.; conditions: Amaranthus retroflexus, post-emergence, 336 h, read-out: percent postemergent control
Procedure: as §1

sorghum [4] = assay: Postemergent control of plant species; format: in vivo, Sorghum vulgare; conditions: Sorghum, post-emergence, 336 h, read-out: percent postemergent control
Procedure: as §1

wild oats [5] = assay: Postemergent control of plant species; format: in vivo, Avena fatua; conditions: Avena fatua, post-emergence, 336 h, read-out: percent postemergent control
Procedure: as §1

jimsonweed [6] = assay: Postemergent control of plant species; format: in vivo, Datura stramonium; conditions: Datura stramonium, post-emergence, 336 h, read-out: percent postemergent control
Procedure: as §1

cotton [7] = assay: Postemergent control of plant species; format: in vivo, Gossypium spp.; conditions: Gossypium hirsutum, post-emergence, 336 h, read-out: percent postemergent control
Procedure: as §1

rice [8] = assay: Postemergent control of plant species; format: in vivo, Oryza sativa; conditions: Oryza sativa, post-emergence, 336 h, read-out: percent postemergent control
Procedure: as §1

rape [9] = assay: Postemergent control of plant species; format: in vivo, Brassica napus; conditions: Brassica napus, post-emergence, 336 h, read-out: percent postemergent control
Procedure: as §1

crabgrass = assay: Postemergent control of plant species; format: in vivo, Digitaria spp.; conditions: Digitaria sanguinalis, post-emergence, 336 h, read-out: percent postemergent control
Procedure: as §1

soybean [10] = assay: Postemergent control of plant species; format: in vivo, Glycine max.; conditions: Glycine max, post-emergence, 336 h, read-out: percent postemergent control
Procedure: as §1

velvetleaf [11] = assay: Postemergent control of plant species; format: in vivo, Abutilon theophrasti; conditions: Abutilon theophrasti, post-emergence, 336 h, read-out: percent postemergent control
Procedure: as §1

annual morning glory [12] = assay: Postemergent control of plant species; format: in vivo, Ipomoea spp.; conditions: Ipomoea, post-emergence, 336 h, read-out: percent postemergent control
Procedure: as §1

corn [13] = assay: Postemergent control of plant species; format: in vivo, Zea mays; conditions: Zea mays, post-emergence, 336 h, read-out: percent postemergent control
Procedure: as §1

sugar beet [14] = assay: Postemergent control of plant species; format: in vivo, Beta saccharifera; conditions: Beta vulgaris, post-emergence, 336 h, read-out: percent postemergent control
Procedure: as §1

barnyardgrass [15] = assay: Postemergent control of plant species; format: in vivo, Echinochloa crusgalli; conditions: Echinochloa crus-galli, post-emergence, 336 h, read-out: percent postemergent control
Procedure: as §1

cocklebur = assay: Postemergent control of plant species; format: in vivo, Xanthium spp.; conditions: Xanthium strumarium, post-emergence, 336 h, read-out: percent postemergent control
Procedure: as §1

yellow foxtail [16] = assay: Postemergent control of plant species; format: in vivo, Setaria lutescens; conditions: Setaria, post-emergence, 336 h, read-out: percent postemergent control
Procedure: as §1

rape [17] = assay: Preemergent control of plant species; format: in vivo, Brassica napus; conditions: Brassica napus, pre-emergence, 336 h; 0.25 lb/acre; read-out: percent preemergent control
How it was run: (§2)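 Seeds sown in agricultural soil beds in a greenhouse received aqueous emulsions of test compositions applied uniformly over the bed surface at the listed rates; water-treated beds served as control. After two weeks under greenhouse growth conditions, control was scored as growth reduction versus untreated plants of the same species.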

velvetleaf [18] = assay: Preemergent control of plant species; format: in vivo, Abutilon theophrasti; conditions: Abutilon theophrasti, pre-emergence, 336 h; 0.25 lb/acre; read-out: percent preemergent control
How it was run: as §2

wheat [19] = assay: Preemergent control of plant species; format: in vivo, Triticum aestivum; conditions: Triticum aestivum, pre-emergence, 336 h; 0.25 lb/acre; read-out: percent preemergent control
How it was run: as §2

yellow nutsedge [20] = assay: Preemergent control of plant species; format: in vivo, Cyperus esculentus; conditions: Cyperus, pre-emergence, 336 h; 0.25 lb/acre; read-out: percent preemergent control
How it was run: as §2

sorghum [21] = assay: Preemergent control of plant species; format: in vivo, Sorghum vulgare; conditions: Sorghum, pre-emergence, 336 h; 0.25 lb/acre; read-out: percent preemergent control
How it was run: as §2

johnson grass [22] = assay: Preemergent control of plant species; format: in vivo, Sorghum halepense; conditions: Sorghum halepense, pre-emergence, 336 h; 0.25 lb/acre; read-out: percent preemergent control
How it was run: as §2

annual morning glory [23] = assay: Preemergent control of plant species; format: in vivo, Ipomoea spp.; conditions: Ipomoea, pre-emergence, 336 h; 0.25 lb/acre; read-out: percent preemergent control
How it was run: as §2

jimsonweed [24] = assay: Preemergent control of plant species; format: in vivo, Datura stramonium; conditions: Datura stramonium, pre-emergence, 336 h; 0.25 lb/acre; read-out: percent preemergent control
How it was run: as §2

soybean [25] = assay: Preemergent control of plant species; format: in vivo, Glycine max.; conditions: Glycine max, pre-emergence, 336 h; 0.25 lb/acre; read-out: percent preemergent control
How it was run: as §2

rice [26] = assay: Preemergent control of plant species; format: in vivo, Oryza sativa; conditions: Oryza sativa, pre-emergence, 336 h; 0.25 lb/acre; read-out: percent preemergent control
How it was run: as §2

yellow foxtail [27] = assay: Preemergent control of plant species; format: in vivo, Setaria lutescens; conditions: Setaria, pre-emergence, 336 h; 0.25 lb/acre; read-out: percent preemergent control
How it was run: as §2

barnyardgrass [28] = assay: Preemergent control of plant species; format: in vivo, Echinochloa crusgalli; conditions: Echinochloa crus-galli, pre-emergence, 336 h; 0.25 lb/acre; read-out: percent preemergent control
How it was run: as §2

sugar beet [29] = assay: Preemergent control of plant species; format: in vivo, Beta saccharifera; conditions: Beta vulgaris, pre-emergence, 336 h; 0.25 lb/acre; read-out: percent preemergent control
How it was run: as §2

cotton [30] = assay: Preemergent control of plant species; format: in vivo, Gossypium spp.; conditions: Gossypium hirsutum, pre-emergence, 336 h; 0.25 lb/acre; read-out: percent preemergent control
How it was run: as §2

corn [31] = assay: Preemergent control of plant species; format: in vivo, Zea mays; conditions: Zea mays, pre-emergence, 336 h; 0.25 lb/acre; read-out: percent preemergent control
How it was run: as §2

wild oats [32] = assay: Preemergent control of plant species; format: in vivo; conditions: Avena fatua, pre-emergence, 336 h; 0.25 lb/acre; read-out: percent preemergent control
How it was run: as §2

| SMILES | plant injury at 500 ppm (wheat [1]) [%] | pest or weed control at 500 ppm (johnson grass [2]) [%] | pest or weed control at 500 ppm (yellow nutsedge [3]) [%] | pest or weed control at 500 ppm (pigweed) [%] | plant injury at 500 ppm (sorghum [4]) [%] | pest or weed control at 500 ppm (wild oats [5]) [%] | pest or weed control at 500 ppm (jimsonweed [6]) [%] | plant injury at 500 ppm (cotton [7]) [%] | plant injury at 500 ppm (rice [8]) [%] | plant injury at 500 ppm (rape [9]) [%] | pest or weed control at 500 ppm (crabgrass) [%] | plant injury at 500 ppm (soybean [10]) [%] | pest or weed control at 500 ppm (velvetleaf [11]) [%] | pest or weed control at 500 ppm (annual morning glory [12]) [%] | plant injury at 500 ppm (corn [13]) [%] | plant injury at 500 ppm (sugar beet [14]) [%] | pest or weed control at 500 ppm (barnyardgrass [15]) [%] | pest or weed control at 500 ppm (cocklebur) [%] | pest or weed control at 500 ppm (yellow foxtail [16]) [%] | plant injury at 280.212 g/ha (rape [17]) [%] | further results |
| --- | --- | --- | --- | --- | --- | --- | --- | --- | --- | --- | --- | --- | --- | --- | --- | --- | --- | --- | --- | --- | --- |
| Cc1nc2nc(S(=O)(=O)Nc3ccccc3[N+](=O)[O-])nn2c2c1CCC2 [Compound 105] | 0 | 0 | 0 | 60 | 0 | 0 | 60 | 35 | 20 | 40 | 0 | 95 | 0 | 70 | 80 | 90 | 20 | 100 | – | – | – |
| COC(=O)c1ccc(Cl)c(NS(=O)(=O)c2nc3nc(C)cc(C)n3n2)c1Cl [Compound 82] | 0 | 0 | 0 | 100 | 0 | 0 | 90 | 85 | 0 | 100 | 0 | 85 | 85 | 85 | 0 | 95 | 0 | 85 | 0 | – | – |
| Cc1ccn2nc(S(=O)(=O)Nc3c(F)c(F)cc(F)c3F)nc2n1 [Compound 163] | 0 | 0 | 0 | 90 | 0 | 0 | 70 | 0 | 0 | 70 | 0 | 0 | 20 | 0 | 0 | 0 | 0 | 40 | 50 | – | – |
| COc1ccc(Cl)c(NS(=O)(=O)c2nc3nc(C)ccn3n2)c1Cl [Compound 170] | 0 | 85 | 98 | 100 | 25 | 80 | 90 | 50 | 35 | – | 60 | 30 | 90 | 70 | 25 | 95 | 75 | 25 | 80 | 100 | pest or weed control at 280.212 g/ha (velvetleaf [18]): 85%; plant injury at 280.212 g/ha (wheat [19]): 10%; pest or weed control at 280.212 g/ha (yellow nutsedge [20]): 0%; plant injury at 280.212 g/ha (sorghum [21]): 80%; pest or weed control at 280.212 g/ha (johnson grass [22]): 90%; pest or weed control at 280.212 g/ha (annual morning glory [23]): 30%; pest or weed control at 280.212 g/ha (jimsonweed [24]): 0%; plant injury at 280.212 g/ha (soybean [25]): 0%; plant injury at 280.212 g/ha (rice [26]): 30%; pest or weed control at 280.212 g/ha (yellow foxtail [27]): 70%; pest or weed control at 280.212 g/ha (barnyardgrass [28]): 40%; plant injury at 280.212 g/ha (sugar beet [29]): 90%; plant injury at 280.212 g/ha (cotton [30]): 70%; plant injury at 280.212 g/ha (corn [31]): 20% |
| COC(=O)c1c(NS(=O)(=O)c2nc3nc(C)ccn3n2)c(C)nn1C [Compound 248] | 0 | 0 | 0 | 0 | 80 | 0 | 0 | 50 | 50 | 100 | 0 | 40 | 100 | 0 | 0 | 75 | 0 | 0 | 0 | – | – |
| Cc1ccn2nc(S(=O)(=O)N(c3c(F)cccc3F)S(=O)(=O)c3ccccc3)nc2n1 [Compound 298] | 0 | 50 | 0 | 100 | 40 | – | 50 | 35 | 40 | 85 | 25 | 0 | 80 | 50 | 0 | 80 | 65 | 50 | 75 | 100 | pest or weed control at 280.212 g/ha (velvetleaf [18]): 100%; plant injury at 280.212 g/ha (wheat [19]): 50%; pest or weed control at 280.212 g/ha (yellow nutsedge [20]): 100%; plant injury at 280.212 g/ha (sorghum [21]): 95%; pest or weed control at 280.212 g/ha (johnson grass [22]): 95%; pest or weed control at 280.212 g/ha (annual morning glory [23]): 70%; pest or weed control at 280.212 g/ha (jimsonweed [24]): 100%; plant injury at 280.212 g/ha (soybean [25]): 0%; plant injury at 280.212 g/ha (rice [26]): 95%; pest or weed control at 280.212 g/ha (yellow foxtail [27]): 100%; pest or weed control at 280.212 g/ha (barnyardgrass [28]): 100%; plant injury at 280.212 g/ha (sugar beet [29]): 100%; plant injury at 280.212 g/ha (cotton [30]): 100%; plant injury at 280.212 g/ha (corn [31]): 40%; pest or weed control at 280.212 g/ha (wild oats [32]): 50% |
